# Laboratory results as given in patent US11701372B2, “Inhalation formulations of 1'-cyano substituted carba-nucleoside analogs” (priority 2020, dated 2023).
# Like-named read-outs stand apart in the source and are kept apart here.
# How the values were obtained:
# [1] = 24 hours, endogenous ATP
# [2] = In use testing of reconstituted solutions in IV bags and IV tubings; assay type: physicochemical
# Source text: The IV bags and IV tubings were sampled over time and tested for % assay/degradation.
# [3] = assay type: physicochemical; details: for % assay/degs: T = 0
# Experimental: For each condition, samples were staged at ambient and refrigerated conditions. Samples were analyzed for % assay/degs, appearance, reconstitution time, pH, and compared to T=0. The structures of the key impurities/metabolites are shown below.
smiles,measurement,setting,value
Nc1ncnc2c1ncn2[C@@H]1O[C@H](COP(=O)(O)OP(=O)(O)OP(=O)(O)O)[C@@H](O)[C@H]1O [ATP],ATP Peak Area (LC-MS/MS),"[1]; Nasal Mucosa, 0.168 mg/kg inhaled deposited dose of Formula Ia",6.47 ± 0.40 ×10^8
same,ATP Peak Area (LC-MS/MS),"[1]; Nasal Mucosa, 0.536 mg/kg inhaled deposited dose of Formula Ia",5.65 ± 0.79 ×10^8
same,ATP Peak Area (LC-MS/MS),"[1]; Nasopharyngeal Mucosa, 0.168 mg/kg inhaled deposited dose of Formula Ia",4.29 ± 0.84 ×10^8
same,ATP Peak Area (LC-MS/MS),"[1]; Nasopharyngeal Mucosa, 0.536 mg/kg inhaled deposited dose of Formula Ia",3.69 ± 0.40 ×10^8
CCC(CC)COC(=O)[C@H](C)N[P@](=O)(OC[C@H]1O[C@@](C(N)=O)(c2ccc3c(N)ncnn23)[C@H](O)[C@@H]1O)Oc1ccccc1 [Compound G],% assay/degradation,"[2]; 30 mg (IV Bag), 2-8° C. 24 h",0.05 % w/w
same,% assay/degradation,"[2]; 30 mg (IV Bag), 2-8° C. 48 h",0.06 % w/w
same,% assay/degradation,"[2]; 30 mg (IV Bag), Ambient 4 h",0.06 % w/w
same,% assay/degradation,"[2]; 30 mg (IV Bag), Ambient 8 h",0.06 % w/w
same,% assay/degradation,"[2]; 30 mg (IV Bag), Ambient 24 h",0.06 % w/w
same,% assay/degradation,"[2]; 30 mg (IV Bag), T = 0 (2-8° C. series)",0.05 % w/w
same,% assay/degradation,"[2]; 30 mg (IV Tube), Ambient 6 Hours",0.06 % w/w
same,% assay/degradation,"[2]; 30 mg in 100 mL 0.9% Saline (IV Bag), T = 0 (Ambient series)",0.05 % w/w
same,% assay/degradation,"[2]; 200 mg (IV Bag), 2-8° C. 24 h",0.05 % w/w
same,% assay/degradation,"[2]; 200 mg (IV Bag), 2-8° C. 48 h",0.06 % w/w
same,% assay/degradation,"[2]; 200 mg (IV Bag), Ambient 4 h",0.06 % w/w
same,% assay/degradation,"[2]; 200 mg (IV Bag), Ambient 8 h",0.06 % w/w
same,% assay/degradation,"[2]; 200 mg (IV Bag), Ambient 24 h",0.06 % w/w
same,% assay/degradation,"[2]; 200 mg (IV Bag), T = 0 (2-8° C. series)",0.05 % w/w
same,% assay/degradation,"[2]; 200 mg (IV Tube), Ambient 6 h",0.05 % w/w
same,% assay/degradation,"[2]; 200 mg in 100 mL 0.9% Saline (IV Bag), T = 0 (Ambient series)",0.05 % w/w
same,"% assay/degs, difference from T = 0","[3]; pH 1.8, 2-8° C., 2 h",0.00%
same,"% assay/degs, difference from T = 0","[3]; pH 1.8, 2-8° C., 3 h",0.00%
same,"% assay/degs, difference from T = 0","[3]; pH 1.8, 2-8° C., 8 h",0.00%
same,"% assay/degs, difference from T = 0","[3]; pH 1.8, 2-8° C., 24 h",0.00%
same,"% assay/degs, difference from T = 0","[3]; pH 1.8, 2-8° C., 48 h",0.00%
same,"% assay/degs, difference from T = 0","[3]; pH 1.8, Ambient, 1 h",0.00%
same,"% assay/degs, difference from T = 0","[3]; pH 1.8, Ambient, 2 h",0.00%
same,"% assay/degs, difference from T = 0","[3]; pH 1.8, Ambient, 3 h",0.00%
same,"% assay/degs, difference from T = 0","[3]; pH 1.8, Ambient, 8 h",0.00%
same,"% assay/degs, difference from T = 0","[3]; pH 1.8, Ambient, 24 h",0.00%
same,"% assay/degs, difference from T = 0","[3]; pH 1.8, Ambient, 48 h",0.00%
same,% assay/degs,[3]; pH 1.8,0.05%
same,"% assay/degs, difference from T = 0","[3]; pH 2.0, 2-8° C., 2 h",0.00%
same,"% assay/degs, difference from T = 0","[3]; pH 2.0, 2-8° C., 3 h",0.00%
same,"% assay/degs, difference from T = 0","[3]; pH 2.0, 2-8° C., 8 h",0.00%
same,"% assay/degs, difference from T = 0","[3]; pH 2.0, 2-8° C., 24 h",0.00%
same,"% assay/degs, difference from T = 0","[3]; pH 2.0, 2-8° C., 48 h",0.00%
same,"% assay/degs, difference from T = 0","[3]; pH 2.0, Ambient, 1 h",0.00%
same,"% assay/degs, difference from T = 0","[3]; pH 2.0, Ambient, 2 h",0.00%
same,"% assay/degs, difference from T = 0","[3]; pH 2.0, Ambient, 3 h",0.00%
same,"% assay/degs, difference from T = 0","[3]; pH 2.0, Ambient, 8 h",0.00%
same,"% assay/degs, difference from T = 0","[3]; pH 2.0, Ambient, 24 h",0.00%
same,"% assay/degs, difference from T = 0","[3]; pH 2.0, Ambient, 48 h",0.00%
same,% assay/degs,[3]; pH 2.0,0.05%
same,"% assay/degs, difference from T = 0","[3]; pH 3.5, 2-8° C., 2 h",0.00%
same,"% assay/degs, difference from T = 0","[3]; pH 3.5, 2-8° C., 8 h",0.00%
same,"% assay/degs, difference from T = 0","[3]; pH 3.5, 2-8° C., 24 h",0.00%
same,"% assay/degs, difference from T = 0","[3]; pH 3.5, 2-8° C., 48 h",0.00%
same,"% assay/degs, difference from T = 0","[3]; pH 3.5, 2-8° C., 72 h",0.00%
same,"% assay/degs, difference from T = 0","[3]; pH 3.5, 2-8° C., 96 h",0.00%
same,"% assay/degs, difference from T = 0","[3]; pH 3.5, 2-8° C., 168 h",0.00%
same,"% assay/degs, difference from T = 0","[3]; pH 3.5, Ambient, 2 h",0.00%
same,"% assay/degs, difference from T = 0","[3]; pH 3.5, Ambient, 8 h",0.00%
same,"% assay/degs, difference from T = 0","[3]; pH 3.5, Ambient, 24 h",0.00%
same,"% assay/degs, difference from T = 0","[3]; pH 3.5, Ambient, 48 h",0.00%
same,"% assay/degs, difference from T = 0","[3]; pH 3.5, Ambient, 72 h",0.00%
same,"% assay/degs, difference from T = 0","[3]; pH 3.5, Ambient, 96 h",0.00%
same,"% assay/degs, difference from T = 0","[3]; pH 3.5, Ambient, 168 h",0.00%
same,% assay/degs,[3]; pH 3.5,0.05%
same,"% assay/degs, difference from T = 0","[3]; pH 3.8, 2-8° C., 7.2 h",0.00%
same,"% assay/degs, difference from T = 0","[3]; pH 3.8, 2-8° C., 24 h",0.00%
same,"% assay/degs, difference from T = 0","[3]; pH 3.8, 2-8° C., 96 h",0.00%
same,"% assay/degs, difference from T = 0","[3]; pH 3.8, 2-8° C., 168 h",0.00%
same,"% assay/degs, difference from T = 0","[3]; pH 3.8, Ambient, 7.2 h",0.00%
same,"% assay/degs, difference from T = 0","[3]; pH 3.8, Ambient, 24 h",0.00%
same,"% assay/degs, difference from T = 0","[3]; pH 3.8, Ambient, 96 h",0.00%
same,"% assay/degs, difference from T = 0","[3]; pH 3.8, Ambient, 168 h",0.00%
same,% assay/degs,[3]; pH 3.8,0.05%
same,"% assay/degs, difference from T = 0","[3]; pH 4.0, 2-8° C., 7.2 h",0.00%
same,"% assay/degs, difference from T = 0","[3]; pH 4.0, 2-8° C., 24 h",0.00%
same,"% assay/degs, difference from T = 0","[3]; pH 4.0, 2-8° C., 96 h",0.00%
same,"% assay/degs, difference from T = 0","[3]; pH 4.0, 2-8° C., 168 h",0.00%
same,"% assay/degs, difference from T = 0","[3]; pH 4.0, Ambient, 7.2 h",0.00%
same,"% assay/degs, difference from T = 0","[3]; pH 4.0, Ambient, 24 h",0.00%
same,"% assay/degs, difference from T = 0","[3]; pH 4.0, Ambient, 96 h",0.00%
same,"% assay/degs, difference from T = 0","[3]; pH 4.0, Ambient, 168 h",0.00%
same,% assay/degs,[3]; pH 4.0,0.06%
